The text below walks through data of patent publication US20250268967A1, “NUTRACEUTICAL COMPOUNDS USEFUL IN THE TREATMENT OF CORONAVIRUS DISEASE” (priority 2020, published 2025).

Each structure is given as a SMILES string. Where two headings read alike, the source gives them in different places. Where only a bound is given, the exact number is not on record here.

The conditions of series [1]: from three publications; read-out: cytotoxicity (CC50); cited from earlier work.
The test system of series [2] is SARS-CoV-2. Put plainly: In vitro antiviral immunostaining assay in Calu-3 cells. Format: cell-based.
Series [3] addresses T1, α-globulin (vitamin D-Binding Protein [DBP]) (Homo sapiens, UniProt P02774).
T1 sequence (P02774 17-474): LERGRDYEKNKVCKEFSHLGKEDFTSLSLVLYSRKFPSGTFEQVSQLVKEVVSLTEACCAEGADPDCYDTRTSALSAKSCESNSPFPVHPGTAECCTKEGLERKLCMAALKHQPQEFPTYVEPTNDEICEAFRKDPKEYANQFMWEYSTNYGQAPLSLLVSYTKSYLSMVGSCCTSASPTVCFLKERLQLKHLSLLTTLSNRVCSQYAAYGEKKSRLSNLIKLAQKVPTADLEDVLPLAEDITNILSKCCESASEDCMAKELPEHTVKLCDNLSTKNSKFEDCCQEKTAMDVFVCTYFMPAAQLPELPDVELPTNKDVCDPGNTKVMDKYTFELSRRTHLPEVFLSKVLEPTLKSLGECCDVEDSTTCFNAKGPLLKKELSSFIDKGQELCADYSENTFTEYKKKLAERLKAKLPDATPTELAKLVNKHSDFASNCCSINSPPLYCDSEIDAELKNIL
To be noted: binds weakly to α-globulin (DBP) after absorption via chylomicrons; cited from earlier work.

Series [4] has as its system SARS-CoV-2. Briefly: In vitro antiviral immunostaining assay in Vero E6 cells.
Series [5] concerns SARS-CoV-2. Put plainly: In vitro antiviral assay, VeroE6 cells and Calu3 cells (cell line not separated in the statement). To be noted: for inhibition of the SARS-CoV-2 virus: cell line not specified (FIG. 2, FIG. 6).
In series [6] the test system is SARS-CoV-2. Briefly: microbe, parasite or virus in culture. The class given is cell-based.
Series [7] has as its system Calu-3 cells. To be noted: in words.
Series [8] is described as follows: in vitro. To be noted: human.
The conditions of series [9]: infected patients, 60 mg daily for four months; in words; cited from earlier work.
Series [10] has as its target COVID-19 protease (Severe acute respiratory syndrome coronavirus 2, UniProt P0DTD1). To be noted: molecular docking, in words; cited from earlier work.

On to `CCC(CC)COC(=O)[C@H](C)N[P@](=O)(OC[C@H]1O[C@@](C#N)(c2ccc3c(N)ncnn23)[C@H](O)[C@@H]1O)Oc1ccccc1` [Remdesivir], for which, in series [1], the CC50 is above 100 µM.

Regarding `C=C1CC[C@H](O)C/C1=C/C=C1\CCC[C@]2(C)[C@@H]([C@H](C)CCCC(C)C)CC[C@@H]12` [Vitamin D3, cholecalciferol], the IC50 in series [2] (Severe acute respiratory syndrome coronavirus 2, Calu-3) is around 22.3 µM; in series [4] (VeroE6 cells, FIG. 2), around 33.5 µM. In addition, in series [3], the protein binding was 50-80%. Moreover, the EC100 entry in series [4] (Vero E 6 cells, SARS-CoV-2, in words) is reported as “Achieved”. In addition, the “inhibition of the SARS-CoV-2 virus” value in [5] is recorded as “about 100%”.

On to `CC(C)=CCC[C@](C)(O)[C@@H]1CC=C(C)CC1` [Levomenol, α-(−)-bisabolol], for which the “inhibition of the virus” value in series [2] (Calu-3 cells infected with SARS-CoV-2, FIG. 3) was “about 60%”. The “selectivity index (SI)” value in series [6] (Calu-3 cells, from CC50 and EC50) is 26.1. Moreover, the EC50 in [6] (Severe acute respiratory syndrome coronavirus 2, Calu-3 cells infected with SARS-CoV-2, FIG. 4, read-out: EC50 (antiviral activity against SARS-CoV-2)) stood at 0.115 µM. The “cytotoxicity, as measured by inhibition of cell viability” value in [7] is on record as “not observed”. The compound also registered a CC50 in series [8] of 3 µM.

Consider `CC1=C(/C=C/C(C)=C/C=C/C(C)=C/C=C/C=C(C)/C=C/C=C(C)/C=C/C2=C(C)CCCC2(C)C)C(C)(C)CCC1` [Beta Carotene, Beta-carotene], for which the clinical toxicity entry in [9] is “No clinical toxicity was observed”.

As to `[Zn]` [Zinc], the “cytotoxicity, as measured by cell viability” value in series [5] (FIG. 6, in words) is reported as “not observed”. Further, the “inhibition of the SARS-CoV-2 virus” value in series [5] is recorded as “about 75%”.

Consider `C[C@@H]1C(=O)O[C@H]2C[C@@]34[C@H]5C[C@@H](C(C)(C)C)[C@]36[C@@H](OC(=O)[C@@H]6O)O[C@@]4(C(=O)O5)[C@]21O` [Ginkgolide A], for which the “predicted binding affinity to the COVID-19 protease” value in [10] is “high binding affinity”.
